This is an account of results in article PMC8697972, “New Auranofin Analogs with Antibacterial Properties against Burkholderia Clinical Isolates” (Antibiotics, 2021).

The test system of the assay is B. cenocepacia K56-2. Kind of assay: Multistep resistance by serial passaging at 0.5× MIC. The format is cell-based, Burkholderia cenocepacia. The note with it: for change of MIC on serial passaging: 24 days of passaging at 0.5× MIC; for MIC: Burkholderia cenocepacia.
The mark [1] stands for this setting: K562, 0 h, day 0 of serial passaging, read-out: starting MIC in multistep resistance assay.
[2] abbreviates: K562, after 12–16 days of passaging at 0.5× MIC, read-out: MIC reached on serial passaging.

Values after ≈ are worked out from the molar mass of the structure shown. Like-named read-outs stand apart in the source and are kept apart here.

On to `CC(O)C[S][Au-][P+](C)(C)C` (stereo not drawn) [MS-40S], for which the “change of MIC on serial passaging” value was “no apparent increase”.
As for `C[C@H]1c2cccc(O)c2C(=O)C2=C(O)[C@]3(O)C(=O)C(C(N)=O)=C(O)[C@@H](N(C)C)[C@@H]3[C@@H](O)[C@@H]21` [DOX, doxycycline, reference compound], the MIC under setting [1] was 4 µg/mL (≈ 9 µM) and the MIC under setting [2] came out at 256 µg/mL (≈ 576 µM).
With `C[C@@H](O)[C@H]1C(=O)N2C(C(=O)O)=C(S[C@@H]3CN[C@H](C(=O)N(C)C)C3)[C@H](C)[C@H]12` [MEM, meropenem, reference compound], the MIC amounted to 16 µg/mL (≈ 41.7 µM) under setting [1] and 256 µg/mL (≈ 668 µM) under setting [2].
In the case of `C[PH](C)(C)[Au][S]CCO` [MS-40, 2-mercaptoethanolatotrimethylphosphine gold(I)], the “change of MIC on serial passaging” value was “no apparent increase”.
